# Reference: PubChem BioAssay (NCI)
#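 Briefly, cells in 96-well plates were exposed to five compound concentrations for 48 h, and endpoints were estimated by linear interpolation. TGI is the concentration that stops growth completely.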
# Test system: KM12 colon
# Test: inhibition of tumour cell growth, NCI panel, 48 h
row,SMILES,TGI [µM]
1,CCOC(=O)CCC(NC(=O)c1ccc(NC(OC)c2nc3cc(C(F)(F)F)ccc3nc2-c2ccccc2)cc1)C(=O)OCC (centres undefined),19.1
2,CCCCOC/N=C(/N)NC#N,> 100
3,COc1ccc2[nH]c3c(c2c1)[C@H]1CCC(C(C)(C)C)C[C@H]1[C@H]1C(=O)N(c2ccccc2)C(=O)[C@@H]31 (some centres undefined),> 100
4,NC(=O)[N+](=CC(=S)Nc1ccccc1Cl)C(N)=O,> 100

# Test system: LOX IMVI melanoma
# Test: inhibition of tumour cell growth, NCI panel, 48 h
row,SMILES,TGI [µM]
1,CCOC(=O)C1=C(OC(OCC)C(CC)[Se]c2ccccc2)CCC1 (centres undefined),20.5
2,CCCc1cc(OC(=O)c2c(O)cc(OC)cc2CCC)cc(O)c1C(=O)O,61.7
3,Cc1ccc(-c2cc(-c3ccccc3)c(C#N)c(=O)[nH]2)cc1,> 100
4,O=[N+]([O-])c1ccc(-c2nn3c(C45CC6CC(CC(C6)C4)C5)nnc3s2)c(Cl)c1,> 100
5,O=[N+]([O-])c1cccc(Nc2nc(Cl)nc(Cl)n2)c1,> 100
6,O=C1Oc2ccccc2C(=O)/C1=C/N1C(=O)CNC1=S,> 100
7,CCOC(=O)C(=CNc1ccc(F)c(F)c1)C(=O)OCC,> 100
8,COc1ccc(-c2nc(-c3cnccn3)n(C3OC(CO)C(O)C3O)n2)cc1 (centres undefined),> 10
9,C1CCCN(NC2=NCCO2)CC1,> 100
10,O=C1NCN(c2ccccc2)C12CCN(CC1COc3ccccc3O1)CC2 (centres undefined),> 100
11,O=C1OC([C@H](O)c2cccnc2)c2ccccc21 (some centres undefined),> 10
12,CO/C(=N\N=C\c1ccc(Cl)c(Cl)c1)c1ccncc1,> 10
13,COC(=O)/C=C(\C)CCC1SC1(C)C (centres undefined),> 100
14,C=C1C2=C(CCCC2)C(=O)OC12CCCCC2,> 100
15,COC(=O)C(=O)C(C(=O)C(=O)Nc1ccc(C)cc1C)c1nc2ccc(Cl)cc2[nH]c1=O (centres undefined),> 100
16,Cc1ccc(S(=O)(=O)N/N=C2/CCC3(O)CC2(C)CCC2[C@H]3CC2(C)C)cc1 (some centres undefined),28.6
17,Cc1ccc(C(=O)Oc2ccccc2)cc1N=NN(C)C,> 100
18,CC1=CCC(C(C)(C)NC(=O)c2ccccc2)C/C1=N/O (centres undefined),> 100
19,O=[N+]([O-])c1cccc2nccc(NCCN3CCOCC3)c12,46.6
20,CCCCCCCCCCCCOCC1(COCCCCCCCCCCCC)COC(c2ccc(N)cc2)OC1,> 100
21,CCSC1=N/C(=C\c2ccco2)C(=O)N1,> 100
22,CCOC(=O)CCC(NC(=O)c1ccc(NC(OC)c2nc3cc(C(F)(F)F)ccc3nc2-c2ccccc2)cc1)C(=O)OCC (centres undefined),23.4
23,CCCCOC/N=C(/N)NC#N,90.1
24,COc1ccc2[nH]c3c(c2c1)[C@H]1CCC(C(C)(C)C)C[C@H]1[C@H]1C(=O)N(c2ccccc2)C(=O)[C@@H]31 (some centres undefined),> 100
25,NC(=O)[N+](=CC(=S)Nc1ccccc1Cl)C(N)=O,> 100

# Test system: RXF 393 renal
# Test: inhibition of tumour cell growth, NCI panel, 48 h
row,SMILES,TGI [µM]
1,C=C1C(=O)O[C@H]2C1C[C@H](O)[C@@]1(C)OC1CC[C@@]1(C)O[C@H]21 (some centres undefined),46.9
2,CCOC(=O)C1=C(OC(OCC)C(CC)[Se]c2ccccc2)CCC1 (centres undefined),37.7
3,CCCc1cc(OC(=O)c2c(O)cc(OC)cc2CCC)cc(O)c1C(=O)O,53.2
4,Cc1ccc(-c2cc(-c3ccccc3)c(C#N)c(=O)[nH]2)cc1,> 100
5,O=[N+]([O-])c1ccc(-c2nn3c(C45CC6CC(CC(C6)C4)C5)nnc3s2)c(Cl)c1,> 100
6,O=C1Oc2ccccc2C(=O)/C1=C/N1C(=O)CNC1=S,> 100
7,CCOC(=O)C(=CNc1ccc(F)c(F)c1)C(=O)OCC,> 100
8,CCCc1nc2c(n1CC)C(=O)c1ccccc1C2=O,69.1
9,C1CCCN(NC2=NCCO2)CC1,> 100
10,O=C1NCN(c2ccccc2)C12CCN(CC1COc3ccccc3O1)CC2 (centres undefined),96.5
11,O=C1OC([C@H](O)c2cccnc2)c2ccccc21 (some centres undefined),> 10
12,CO/C(=N\N=C\c1ccc(Cl)c(Cl)c1)c1ccncc1,> 10
13,COC(=O)/C=C(\C)CCC1SC1(C)C (centres undefined),> 100
14,C=C1C2=C(CCCC2)C(=O)OC12CCCCC2,> 100
15,COC(=O)C(=O)C(C(=O)C(=O)Nc1ccc(C)cc1C)c1nc2ccc(Cl)cc2[nH]c1=O (centres undefined),> 100
16,O=[N+]([O-])c1cccc2nccc(NCCN3CCOCC3)c12,31.9
17,CCOC(=O)CCC(NC(=O)c1ccc(NC(OC)c2nc3cc(C(F)(F)F)ccc3nc2-c2ccccc2)cc1)C(=O)OCC (centres undefined),27.2
18,CCCCOC/N=C(/N)NC#N,> 100
19,COc1ccc2[nH]c3c(c2c1)[C@H]1CCC(C(C)(C)C)C[C@H]1[C@H]1C(=O)N(c2ccccc2)C(=O)[C@@H]31 (some centres undefined),26.5
20,NC(=O)[N+](=CC(=S)Nc1ccccc1Cl)C(N)=O,> 100

# Test system: SF-268 CNS
# Test: inhibition of tumour cell growth, NCI panel, 48 h
row,SMILES,TGI [µM]
1,C=C1C(=O)O[C@H]2C1C[C@H](O)[C@@]1(C)OC1CC[C@@]1(C)O[C@H]21 (some centres undefined),95.7
2,CCOC(=O)C1=C(OC(OCC)C(CC)[Se]c2ccccc2)CCC1 (centres undefined),36.8
3,Cc1ccc(-c2cc(-c3ccccc3)c(C#N)c(=O)[nH]2)cc1,> 100
4,O=[N+]([O-])c1ccc(-c2nn3c(C45CC6CC(CC(C6)C4)C5)nnc3s2)c(Cl)c1,> 100
5,O=[N+]([O-])c1cccc(Nc2nc(Cl)nc(Cl)n2)c1,> 100
6,O=C1Oc2ccccc2C(=O)/C1=C/N1C(=O)CNC1=S,> 100
7,CCOC(=O)C(=CNc1ccc(F)c(F)c1)C(=O)OCC,> 100
8,COc1ccc(-c2nc(-c3cnccn3)n(C3OC(CO)C(O)C3O)n2)cc1 (centres undefined),> 10
9,CCCc1nc2c(n1CC)C(=O)c1ccccc1C2=O,> 100
10,O=C1NCN(c2ccccc2)C12CCN(CC1COc3ccccc3O1)CC2 (centres undefined),> 100
